In assay [1] the test system is glutamine synthetase (GS). Nature of the assay: NH3 secretion in the hybrid device after addition of GS inhibitor. The format is cell-based, X. autotrophicus. The settings on record: 50 μM inhibitor. The method, then: Eappl is defined as the voltage difference between the working (OER) and counter/reference (HER) electrodes in a two-electrode configuration. After inoculation with X. autotrophicus (initial OD600=0.2), the reactor was purged with the gas mixture at a flow rate between 5 to 20 mL min^−1. These electrochemical cells were stirred at 350 rpm to facilitate mass transport and were immersed in a 30° C. water bath. The electrolyte was sampled every 12 or 24 hr to quantify OD600 and N accumulation. For time points in which […] (GS) inhibitor phosphinothricin (PPT) was added with final concentration of 50 μM, aliquots were sampled prior to inhibitor addition. The reported data are based on at least three biological replicates (n≥3).
Ntotal was determined from sampled aliquots after persulfate digestion and based on the absorption of oxidized phenol under acidic conditions (Hach Company 2672245). Nsoluble was determined similarly as Ntotal, except that the supernatants after 10,000 rpm centrifugation were digested in persulfate and subsequently analyzed. NH3 was also determined from the supernatants after centrifugation, but based on the salicylate method that is selective to ammonia (Hach Company TNT830). […] For each category of nitrogen content, the nitrogen concentrations were determined by comparing the solution absorbance with those in standard curves. When PPT was added to induce NH3 secretion, the measured nitrogen concentrations presented in FIG. 5B and Table 3 was subtracted from the nitrogen in PPT (2 nitrogen atoms per each PPT molecule for Ntotal, and 1 nitrogen atom per each PPT for NH3). The PPT nitrogen content was also subtracted when calculating ηelec, NRR in Table 1.

For another assay, the system named is X. autotrophicus. The note with it: read-out: half maximum inhibitory concentration (IC50).
The target of a further assay is nitrogenase. The note with it: competitive inhibition of nitrogenase; cited from earlier work.

As for `CP(=O)(O)CC[C@H](N)C(=O)O` [PPT, phosphinothricin], the “biomass of X. autotrophicus after inhibitor addition” value is “stagnated” in assay [1] and “slows” in assay [1] (listed as phosphinothricin). The “concentration of NNH3 at end of experiment” value in assay [1] (Eappl=3.0 V) is listed as roughly 0.8 mM. Also, the “accumulated Ntotal” value in assay [1] (Eappl=3.0 V, n=3) is 47 ± 3 mg/L. The “concentration of N in free NH3 in the solution (NNH3) at end of experiment” value in assay [1] (Eappl=3.0 V, n=3) came to 11 ± 2 mg/L.

On to `[Co+2]` [Co2+], for which the IC50 in the assay with X. autotrophicus was roughly 50 µM.

Take `[HH]` [H2, hydrogen]: at nitrogenase, the “inhibition constant Ki(D2)” value is reported as roughly 11 kPa.

(Values after patent US20200102254A1, “BIOFERTILIZER AND METHODS OF MAKING AND USING SAME” (President and Fellows of Harvard College, priority 2017, published 2020).)
